PMC12736120, “First-in-Human Phase I Clinical Trial of SLC-391, a Novel and Selective AXL Inhibitor, in Patients with Advanced Solid Tumours” (Pharmaceuticals, 2025)

Test: Phase I safety and tolerability (DLTs, adverse events, laboratory, ECG)
Format: in vivo
Details: for dose-limiting toxicity (DLT): one subject; for Any treatment-related adverse event (TRAE) / TRAE: Decreased appetite / TRAE: Diarrhoea / TRAE: Dysgeusia / TRAE: Fatigue / TRAE: Gastrointestinal disorders / TRAE: General disorders and administration site conditions / TRAE: Metabolism and nutrition disorders / TRAE: Nausea / TRAE: Nervous system disorders / TRAE: Vomiting: Definitely related; for Any treatment-emergent adverse event (TEAE) / TEAE: Abdominal distension / TEAE: Abdominal pain / TEAE: Back pain / TEAE: Blood and lymphatic system disorders / TEAE: Chills / TEAE: Constipation / TEAE: Cough / TEAE: Decreased appetite / TEAE: Diarrhoea / TEAE: Dizziness / TEAE: Dysgeusia / TEAE: Dyspnoea / TEAE: Fatigue / TEAE: Gastrointestinal disorders / TEAE: General disorders and administration site conditions / TEAE: Haematuria / TEAE: Headache / TEAE: Infections and infestations / TEAE: Investigations / TEAE: Metabolism and nutrition disorders / TEAE: Musculoskeletal and connective tissue disorders / TEAE: Nausea / TEAE: Nervous system disorders / TEAE: Oedema peripheral / TEAE: Psychiatric disorders / TEAE: Pyrexia / TEAE: Renal and urinary disorders / TEAE: Respiratory, thoracic, and mediastinal disorders / TEAE: Skin and subcutaneous tissue disorders / TEAE: Vomiting / TEAE: Weight decreased: Grade 1
Protocol: This study employed a standard 3 + 3 dose escalation design with a starting dose of 25 mg QD. […] Dose escalation decisions took into account all available data from evaluable subjects as well as PK and the safety profile of prior dose cohorts. […] There was a minimum 5-day stagger between dosing of the first and second subjects in each dose cohort. Dose escalation decisions were made by a data review committee (DRC) composed of, at minimum, the medical monitor, at least one principal investigator, and a sponsor representative, per the study DRC Plan. Dose escalation could continue until 2 or more subjects in the same dose cohort experienced a dose-limiting toxicity (DLT). DLTs were defined as Grade 3 or 4 adverse drug reactions (ADRs), with grades as defined in the National Cancer Institute Common Toxicity Criteria for Adverse Events (NCI-CTCAE) version 5.0. […] The MTD was defined as the highest dose at which no more than 1 of 6 subjects experienced a DLT during cycle 1 of the study drug. The MTD would have been exceeded if 2 or more subjects in a dose cohort of up to 6 subjects experienced a DLT. Subjects could continue treatment until disease progression, unacceptable toxicity, death, withdrawal of consent, or loss to follow-up.
Before enrolment in the study, all patients received a detailed medical history and physical examination. Clinical laboratory evaluations included clinical chemistry, complete blood count, urinalysis, coagulation factors, and a lipid panel. Other safety assessments included vital signs, physical examination, electrocardiogram, and echocardiogram with multigated acquisition (ECHO/MUGA). Safety assessments were performed on days 1, 8, 15, and 21 of cycle 1, and on day 1 of cycles 2 to 6.

Nc1ncc(-c2cnn(C3CCNCC3)c2)cc1-c1nnc(CC2CC2)o1 [SLC-391, 3-(5-[cyclopropylmethyl]-1,3,4-oxadiazol-2-yl)-5-(1-[piperidin-4-yl]-1H-pyrazol-4-yl)-pyridin-2-amine]
subjects with SAEs (110 mg BID (1/3)): 33.3% | TEAEs leading to drug withdrawal or study discontinuation (150 mg BID): 16.7% | subjects reporting Grade 3 TEAEs (150 mg BID): 50.0% | DLTs and SAEs (150 mg BID (N = 6)): no DLTs or SAEs | subjects reporting constipation (150 mg BID (N = 6)): 66.7% | subjects reporting diarrhoea (150 mg BID (N = 6)): 66.7% | subjects reporting dyspnoea (150 mg BID (N = 6)): 50.0% | subjects reporting fatigue (150 mg BID (N = 6)): 83.3% | subjects reporting nausea (150 mg BID (N = 6)): 83.3% | subjects with SAEs (150 mg QD (3/6)): 50% | subjects with SAEs (175 mg QD (1/2)): 50% | dose-limiting toxicity (DLT) (175 mg QD (N = 2), SUSAR): Grade 3 haematochezia | TEAEs leading to drug withdrawal or study discontinuation (200 mg BID): 66.7% | subjects reporting Grade 3 TEAEs (200 mg BID): 66.7% | subjects reporting constipation (200 mg BID (N = 3)): 66.7% | subjects reporting decreased appetite (200 mg BID (N = 3)): 66.7% | subjects reporting diarrhoea (200 mg BID (N = 3)): 66.7% | subjects reporting dysgeusia (200 mg BID (N = 3)): 66.7% | subjects reporting fatigue (200 mg BID (N = 3)): 66.7% | subjects reporting headache (200 mg BID (N = 3)): 66.7% | subjects reporting nausea (200 mg BID (N = 3)): 100.0% | dose-limiting toxicity (DLT) (200 mg BID): Grade 3 thrombocytopenia associated with Grade 1 haematuria | subjects with interrupted dosing who continued at a reduced dose (2/9 subjects): 22.2% | maximum tolerated dose (MTD) (25-175 mg QD, 75-200 mg BID, 21-day cycles): not reached | SAEs, subjects (BID cohorts): 6.7% | TEAEs leading to treatment interruption or missed dose (BID cohorts): 40.0% | TEAEs leading to treatment or study discontinuation, subjects (BID cohorts): 20.0% | subjects with Grade 3 TEAEs (BID cohorts): 40.0% | subjects with TRAEs (BID cohorts): 86.7% | subjects with at least one TEAE (BID cohorts): 100.0% | Any treatment-related adverse event (TRAE) (Overall BID (N = 15)): 5 (33.3%) n (%) | TRAE: Decreased appetite (Overall BID (N = 15)): 2 (13.3%) n (%) | TRAE: Diarrhoea (Overall BID (N = 15)): 2 (13.3%) n (%) | TRAE: Dysgeusia (Overall BID (N = 15)): 1 (6.7%) n (%) | TRAE: Fatigue (Overall BID (N = 15)): 1 (6.7%) n (%) | TRAE: Gastrointestinal disorders (Overall BID (N = 15)): 5 (33.3%) n (%) | TRAE: General disorders and administration site conditions (Overall BID (N = 15)): 1 (6.7%) n (%) | TRAE: Metabolism and nutrition disorders (Overall BID (N = 15)): 2 (13.3%) n (%) | TRAE: Nausea (Overall BID (N = 15)): 4 (26.7%) n (%) | TRAE: Nervous system disorders (Overall BID (N = 15)): 1 (6.7%) n (%) | TRAE: Vomiting (Overall BID (N = 15)): 3 (20.0%) n (%) | Any treatment-related adverse event (TRAE) (Overall QD (N = 20)): 7 (35.0%) n (%) | TRAE: Decreased appetite (Overall QD (N = 20)): 2 (10.0%) n (%) | TRAE: Diarrhoea (Overall QD (N = 20)): 5 (25.0%) n (%) | TRAE: Dysgeusia (Overall QD (N = 20)): 1 (5.0%) n (%) | TRAE: Fatigue (Overall QD (N = 20)): 3 (15.0%) n (%) | TRAE: Gastrointestinal disorders (Overall QD (N = 20)): 6 (30.0%) n (%) | TRAE: General disorders and administration site conditions (Overall QD (N = 20)): 3 (15.0%) n (%) | TRAE: Metabolism and nutrition disorders (Overall QD (N = 20)): 2 (10.0%) n (%) | TRAE: Nausea (Overall QD (N = 20)): 4 (20.0%) n (%) | TRAE: Nervous system disorders (Overall QD (N = 20)): 1 (5.0%) n (%) | TRAE: Vomiting (Overall QD (N = 20)): 5 (25.0%) n (%) | Any treatment-related adverse event (TRAE) (Overall Study (N = 35)): 12 (34.3%) n (%) | TRAE: Decreased appetite (Overall Study (N = 35)): 4 (11.4%) n (%) | TRAE: Diarrhoea (Overall Study (N = 35)): 7 (20.0%) n (%) | TRAE: Dysgeusia (Overall Study (N = 35)): 2 (5.7%) n (%) | TRAE: Fatigue (Overall Study (N = 35)): 4 (11.4%) n (%) | TRAE: Gastrointestinal disorders (Overall Study (N = 35)): 11 (31.4%) n (%) | TRAE: General disorders and administration site conditions (Overall Study (N = 35)): 4 (11.4%) n (%) | TRAE: Metabolism and nutrition disorders (Overall Study (N = 35)): 4 (11.4%) n (%) | TRAE: Nausea (Overall Study (N = 35)): 8 (22.9%) n (%) | TRAE: Nervous system disorders (Overall Study (N = 35)): 2 (5.7%) n (%) | TRAE: Vomiting (Overall Study (N = 35)): 8 (22.9%) n (%) | Any treatment-emergent adverse event (TEAE) (Overall BID (N = 15)): 2 (13.3) n (%) | TEAE: Abdominal distension (Overall BID (N = 15)): 2 (13.3) n (%) | TEAE: Abdominal pain (Overall BID (N = 15)): 0 n (%) | TEAE: Back pain (Overall BID (N = 15)): 0 n (%) | TEAE: Blood and lymphatic system disorders (Overall BID (N = 15)): 1 (6.7) n (%) | TEAE: Chills (Overall BID (N = 15)): 4 (26.7) n (%) | TEAE: Constipation (Overall BID (N = 15)): 5 (33.3) n (%) | TEAE: Cough (Overall BID (N = 15)): 2 (13.3) n (%) | TEAE: Decreased appetite (Overall BID (N = 15)): 1 (6.7) n (%) | TEAE: Diarrhoea (Overall BID (N = 15)): 6 (40.0) n (%) | TEAE: Dizziness (Overall BID (N = 15)): 0 n (%) | TEAE: Dysgeusia (Overall BID (N = 15)): 0 n (%) | TEAE: Dyspnoea (Overall BID (N = 15)): 0 n (%) | TEAE: Fatigue (Overall BID (N = 15)): 4 (26.7) n (%) | TEAE: Gastrointestinal disorders (Overall BID (N = 15)): 7 (46.7) n (%) | TEAE: General disorders and administration site conditions (Overall BID (N = 15)): 5 (33.3) n (%) | TEAE: Haematuria (Overall BID (N = 15)): 3 (20.0) n (%) | TEAE: Headache (Overall BID (N = 15)): 3 (20.0) n (%) | TEAE: Infections and infestations (Overall BID (N = 15)): 1 (6.7) n (%) | TEAE: Investigations (Overall BID (N = 15)): 2 (13.3) n (%) | TEAE: Metabolism and nutrition disorders (Overall BID (N = 15)): 0 n (%) | TEAE: Musculoskeletal and connective tissue disorders (Overall BID (N = 15)): 2 (13.3) n (%) | TEAE: Nausea (Overall BID (N = 15)): 7 (46.7) n (%) | TEAE: Nervous system disorders (Overall BID (N = 15)): 3 (20.0) n (%) | TEAE: Oedema peripheral (Overall BID (N = 15)): 1 (6.7) n (%) | TEAE: Psychiatric disorders (Overall BID (N = 15)): 1 (6.7) n (%) | TEAE: Pyrexia (Overall BID (N = 15)): 2 (13.3) n (%) | TEAE: Renal and urinary disorders (Overall BID (N = 15)): 3 (20.0) n (%) | TEAE: Respiratory, thoracic, and mediastinal disorders (Overall BID (N = 15)): 2 (13.3) n (%) | TEAE: Skin and subcutaneous tissue disorders (Overall BID (N = 15)): 2 (13.3) n (%) | TEAE: Vomiting (Overall BID (N = 15)): 5 (33.3) n (%) | TEAE: Weight decreased (Overall BID (N = 15)): 2 (13.3) n (%) | Any treatment-emergent adverse event (TEAE) (Overall QD (N = 20)): 1 (5.0) n (%) | TEAE: Abdominal distension (Overall QD (N = 20)): 2 (10.0) n (%) | TEAE: Abdominal pain (Overall QD (N = 20)): 4 (20.0) n (%) | TEAE: Back pain (Overall QD (N = 20)): 1 (5.0) n (%) | TEAE: Blood and lymphatic system disorders (Overall QD (N = 20)): 0 n (%) | TEAE: Chills (Overall QD (N = 20)): 2 (10.0) n (%) | TEAE: Constipation (Overall QD (N = 20)): 5 (25.0) n (%) | TEAE: Cough (Overall QD (N = 20)): 4 (20.0) n (%) | TEAE: Decreased appetite (Overall QD (N = 20)): 6 (30.0) n (%) | TEAE: Diarrhoea (Overall QD (N = 20)): 8 (40.0) n (%) | TEAE: Dizziness (Overall QD (N = 20)): 4 (20.0) n (%) | TEAE: Dysgeusia (Overall QD (N = 20)): 1 (5.0) n (%) | TEAE: Dyspnoea (Overall QD (N = 20)): 2 (10.0) n (%) | TEAE: Fatigue (Overall QD (N = 20)): 6 (30.0) n (%) | TEAE: Gastrointestinal disorders (Overall QD (N = 20)): 8 (40.0) n (%) | TEAE: General disorders and administration site conditions (Overall QD (N = 20)): 7 (35.0) n (%) | TEAE: Haematuria (Overall QD (N = 20)): 1 (5.0) n (%) | TEAE: Headache (Overall QD (N = 20)): 2 (10.0) n (%) | TEAE: Infections and infestations (Overall QD (N = 20)): 0 n (%) | TEAE: Investigations (Overall QD (N = 20)): 5 (25.0) n (%) | TEAE: Metabolism and nutrition disorders (Overall QD (N = 20)): 5 (25.0) n (%) | TEAE: Musculoskeletal and connective tissue disorders (Overall QD (N = 20)): 5 (25.0) n (%) | TEAE: Nausea (Overall QD (N = 20)): 8 (40.0) n (%) | TEAE: Nervous system disorders (Overall QD (N = 20)): 8 (40.0) n (%) | TEAE: Oedema peripheral (Overall QD (N = 20)): 2 (10.0) n (%) | TEAE: Psychiatric disorders (Overall QD (N = 20)): 2 (10.0) n (%) | TEAE: Pyrexia (Overall QD (N = 20)): 2 (10.0) n (%) | TEAE: Renal and urinary disorders (Overall QD (N = 20)): 0 n (%) | TEAE: Respiratory, thoracic, and mediastinal disorders (Overall QD (N = 20)): 3 (15.0) n (%) | TEAE: Skin and subcutaneous tissue disorders (Overall QD (N = 20)): 4 (20.0) n (%) | TEAE: Vomiting (Overall QD (N = 20)): 8 (40.0) n (%) | TEAE: Weight decreased (Overall QD (N = 20)): 4 (20.0) n (%) | Any treatment-emergent adverse event (TEAE) (Overall Study (N = 35)): 3 (8.6) n (%)
